Consider three substances from patent US10751418B2, “Orally bioavailable lipid-based constructs” (SDG, Inc., priority 2007, dated 2020).

No end group written: not given here.

Common to all, as to type: in vivo
In experiment [1] the test system is insulin deficient rats (alloxan and streptozotocin). As to the kind of experiment: Liver glycogen after oral GLP-1 in alloxan/streptozotocin treated rats. As to conditions: Dose GLP-1 0.01 mg/rat, 2 hours post dosing. As to the method:
Rats were fasted overnight. Subsequently, 800 mg each of alloxan and streptozotocin were dissolved in 40 mL of PBS (pH 7, 0.01M). The fasted rats were then treated immediately with a 0.5 mL IP dose to induce insulin deficiency. The animals were then stabilized overnight with water and food. Following stabilization, the rats were fasted overnight to deplete liver glycogen.
Subsequently, the rats were administered 1.5 g glucose/kg body weight and GLP-1 in the form of a GLP-1 associated with a composition comprising approximately 62 mole percent 1,2 distearoyl-sn-glycero-3-phosphocholine, approximately 22 mole percent dihexadecyl phosphate, and approximately 16 mole percent cholesterol (“associated GLP-1”). In separate experiments, the amount of associated GLP-1 was varied. Liver glycogen was measured chemically at 2 hours post dosing.
As a control, unassociated GLP-1 was gavaged in place of associated GLP-1. In a separate control, GLP-1, in a dose similar to that orally gavaged, was injected intraperitoneally.

For experiment [2], the system named is mice made diabetic by streptozotocin and alloxan. The experiment is described as follows: Blood glucose after oral dosing via drinking water in alloxan-streptozotocin treated mice. As to conditions: day seven, 0.1 U/ml in drinking water, tail-vein blood. From the text:
Mice used in the present experiment were made diabetic by administering streptozotocin and alloxan. The diabetic animals were then divided into two groups. The control group (11 mice) was orally dosed with regular insulin. The experimental group (7 mice) was orally dosed with a composition comprising insulin and approximately 61 mole percent 1,2 distearoyl-sn-glycero-3-phosphocholine, approximately 22 mole percent dihexadecyl phosphate, approximately 16 mole percent cholesterol, and approximately 1 mole percent poly[Cr-bis(N-2,6-diisopropylphenylcarbamoylmethyl iminodiacetic acid)] (wherein a known portion of the phospholipid component comprised ^14C labeled phospholipid). Dosing was accomplished utilizing the water bottle dosing method described in Experiment 2.
After being made diabetic, […] in both groups were treated identically over a 7 day period and fed with plain food and plain water. Following this 7 day period, rats in the control group were treated for an additional 7 day experimental period with food and regular insulin in the available drinking water at 0.1 U/ml. Over the same 7 day experimental period, the experimental group was fed regular food with the composition of the invention available in the drinking water at 0.1 U/ml. At the end of each 7-day period, blood glucose was measured in a tail-vein sample of blood by a Beckman Blood Glucose Analyzer.

For another experiment, the system named is normal, fasted rats. The experiment is described as follows: Blood calcium levels after calcitonin administration. As to conditions: subcutaneous injection, control rats. As for the experimental part:
Normal, fasted, control rats were given a dose of salmon calcitonin via subcutaneous injection such that an initial 10% reduction in blood calcium was observed. Blood calcium levels were then measured for six hours post injection. An experimental group of rats was given the same effective dose of calcitonin by oral gavage, in the form of a composition comprising calcitonin and approximately 62 mole percent 1,2 distearoyl-sn-glycero-3-phosphocholine, approximately 22 mole percent dihexadecyl phosphate, and approximately 16 mole percent cholesterol. Blood calcium levels were followed for six hours (FIG. 8). […] This difference was statistically significant (FIG. 8).

Consider “GLP-1: unassociated GLP-1 peptide, gavaged or injected intraperitoneally as control (HAEGTFTSDVSSYLEGQAAKEFIAWLVKGR; ends and bridges not checked; UniProt P01275 98-127, looked up)”, for which the figures for the “Liver Glycogen” value in experiment [1] (intraperitoneal) and in experiment [1] (oral gavage) were 59 ± 44 mg/g liver and 40 ± 22 mg/g liver, respectively. For the substance “regular insulin: regular insulin orally dosed to the control group in drinking water”, in experiment [2], the blood glucose result was “not altered at all”. Regarding salmon calcitonin, in the experiment on normal, fasted rats, the “initial reduction in blood calcium” value turned out to be 10%.
